Like-named read-outs stand apart in the source and are kept apart here.

Nine molecules from patent publication US10488418B2, “Fluorescence assay for intestinal permeability” (THE REGENTS OF THE UNIVERSITY OF CALIFORNIA, priority 2014, dated 2019) can be followed below.

Data set [1] in a line: Viologen based fluorescence assay for sugars in urine with 4,4′oBBV and HPTS. More on the design: species or system human. The source says: (§1) A Marquardt 4-parameter curve fit was used. […] The g in urine/g ingested×100 yielded % ingested. Lactulose measurements were confirmed by enzyme assay.
Statistics: The lower limit of detection (LLOD) was defined as the analyte concentration in the urine sample at which fluorescence intensity in the assay was 3 standard deviations above the mean baseline fluorescence. Similarly, the lower limit of quantification (LLOQ) was defined as 10 standard deviations above the mean baseline fluorescence. Coefficient of variation percent (CV %) was determined by averaging sets of samples each measured in 4 wells. Results are given as mean±SEM.

The conditions of data set [2]: human, in vivo.
Experimental: (§2) Intestinal permeability test in humans: Subjects consumed 0.5-1.0 L water the night before and in the morning about 3 hour prior to sample collection. The first morning urine was voided. No food or other beverages were consumed prior to the test. Permeability probes were ingested after baseline urine collection. […] Test subjects were permitted to drink water or coffee as desired. Light snacks were permitted after the fourth hour. Urine volumes were recorded and 50 mL was retained for analysis.
(§3) Sample collection: Freshly collected urine (50 ml) was first centrifuged 2500 RCF at 4° C. for 10 minutes.
(§4) Supernatants were pipetted 40 μL/well in duplicate into plates (#3694, Corning, USA). Fluorescence (Exc/Em 450/580 nm) was read on a plate reader (Infinite M200Pro, Tecan, Switzerland). Concentration was calculated as mg/mL and multiplied by total urine volume in mL, giving total mg in urine. The mg in urine/mg ingested×100 yielded % ingested.
(§5) The SPE column was cleaned with MeOH and H2O between runs. […] Data was corrected for a 9% loss. After SPE, samples were directed to the various assays.
(§6) Viologen method for lactulose and mannitol permeability in humans: Ready-made assay 96 well plates were prepared (#3694, Corning, 199 USA). A 4× premix buffer was prepared (0.1 M sodium phosphate, 0.1 M HEPES, 0.04% Triton X-100, pH 7.4). To this was added HPTS (16 μM) and quencher (1.6 mM 4,4′oBBV or 2.0 mM 4,4′oMBV), each 4 times above final concentration. The different viologen concentrations were chosen to achieve similar extents of quenching in the absence of sugar (about 20% of free fluorophore) while preserving a strong signal to noise (S/N). Blank wells were given 10 μl 4× premix buffer with neither HPTS nor viologen. Some wells received 16 μM HPTS without quencher to determine maximum possible fluorescence. All other wells received 10 μl of the complete 4× premix. Those premixes containing 4,4′oBBV were continuously vortexed because the mixture is a suspension. Plates were sealed with plate tape and stored at 4° C. until use.
(§7) Upon running an assay, 30 μl of standards or samples were pipetted into wells. Final concentrations were 4 μM HPTS and 400 μM 4,4′oBBV or 500 μM 4,4′oMBV. Urine samples were placed in both blank wells (for individual sample blanking) and wells containing complete 4× premix. Plates were put on a shaker for 1 hr, RT. During this time, sugars interacted with the HPTS-viologen complex, liberating HPTS into solution. Plates were then centrifuged at 2500 RCF for 10 minutes at room temperature to pull down remaining HPTS-quencher particulate matter. Plate tape was removed and fluorescence read on a plate reader (Tecan M-200 Infinite, gain 70, 404/535 nm). The height was adjusted to read from the top of the solution (18 mm). […] A Marquardt 4-parameter curve fit was used. Sugar concentrations were calculated as g/mL and multiplied by total urine volume in mL, giving total amount of urine in grams. Values were corrected for percentage recovery from the C18 SPE step. The g in urine/g ingested×100 yielded % ingested. Lactulose measurements were confirmed by enzyme assay. Mannitol measurements were confirmed by HPLC-Evaporative Light Scattering Detector (HPLC-ELSD) using a C8 pre-column and Prevail Carbohydrate ES 5μ 250×4.6 mm column (Grace Davison 224 Discovery Sciences, Ill., USA) with 80:20 MeCN/H2O.
Data set [3] can be described thus: Intestinal permeability test in humans (urine excretion of ingested probes).
Experimental: as §2, §3, §4, §5, §6, §7
A short description of data set [4]: Quenching of HPTS fluorescence by boronic acid viologen in absence of sugar. As for the experimental part:
as §1
The term “Initial quench” as used herein refers to HPTS fluorescence in presence of quencher and absence of sugar (maximum achievable quench) as a percent of maximum possible fluorescence with 4 μM free HPTS in absence of any quencher. The term “LLOD” as used herein refers to analyte concentration in original urine sample (as opposed to final concentration in the assay) at which the fluorescence signal equals or exceeds 3 standard deviations above mean assay noise level. The term “LLOQ” as used herein refers to analyte concentration in original urine sample at which the fluorescence signal equals or exceeds 10 standard deviations above mean assay noise level. The term “range” as used herein refers to urine concentrations found in healthy volunteers before transforming data to % ingested. The term “Mean±SEM” as used herein refers to standard mean plus or minus standard error of mean as generally understood in medical science. The term “CV %” as used herein refers to intra-assay coefficient of variation for samples.

[5] abbreviates: viologen assay system, viologen not specified.

Consider `OB(O)c1ccccc1C[n+]1ccc(-c2cc[n+](Cc3ccccc3B(O)O)cc2)cc1` [4,4′oBBV, 1,1′-bis(2-boronobenzyl)-4,4′-bipyridinium], for which the Relative selectivity entry in data set [1] (4,4′oBBV) is “lactulose>fructose>galactose”. For the molecule `OC[C@H]1O[C@@](CO)(O[C@H]2O[C@H](CO)[C@@H](O)[C@H](O)[C@H]2O)[C@@H](O)[C@@H]1O` [sucrose], in data set [1], the “interference with the viologen based method” value is on record as “Neither sucrose nor sucralose interfere”. The fluorescence signal entry in data set [1] (setting [5]) is reported as “no signal”.

Take `Cc1cc2nc3c(=O)[nH]c(=O)nc-3n(C[C@H](O)[C@H](O)[C@H](O)CO)c2cc1C` [Riboflavin, riboflavin]: in data set [2], the “Typical values for humans (urine concentration)” value (shortened to “Typical values for humans”) lay within 0.01 to 0.1 mM and the “time of return to baseline in urine after ingestion” value is given as “about 6 hours”. For `OC[C@H]1O[C@@H](O[C@H]2[C@H](O)[C@@H](O)C(O)O[C@@H]2CO)[C@H](O)[C@@H](O)[C@H]1O` (stereo partly shown) [lactose], in data set [1] (10 mM sugar), the “response of 4,4′oBBV to sugar” value is “essentially no response”. For the molecule `OC[C@H]1O[C@@H](O[C@@H]2[C@@H](CO)OC(O)(CO)[C@H]2O)[C@H](O)[C@@H](O)[C@H]1O` (mixture of isomers) [Lactulose, lactulose], the “signal stronger than fructose” value in data set [1] (setting [5]) was around 20%. Further, in data set [2], the “Typical values for humans” value was 0.2 to 1.5 mM. As to `OC[C@@H](O)[C@@H](O)[C@H](O)[C@H](O)CO` [Mannitol, mannitol], the “Typical values for humans” value in data set [3] (human urine) is 1 to 10 mM. The “RANGE (urine concentrations found in healthy volunteers)” value in data set [3] (human urine after oral 50 mg riboflavin, 5 g mannitol or 10 g lactulose, mean±SEM, sugars measured with 4,4′oBBV) came out at 3929 ± 972 µM. In addition, in data set [2], the “time of return to baseline in urine after ingestion” value is reported as “about 6 hours”.

Turning to `OB(O)c1ccccc1C[n+]1ccc(-c2cc[n+](Cc3ccccc3)cc2)cc1` [4,4′oMBV, 1-(2-boronobenzyl)-1′-benzyl-4,4′-bipyridinium], the “Initial Quench % Max” value in data set [4] (HPTS fluorescence with quencher and no sugar, as percent of 4 μM free HPTS, final 400 μM 4,4′oBBV or 500 μM 4,4′oMBV) came out at 16%. In addition, the “higher concentration required than 4,4′oBBV to achieve the same extent of quenching” value in data set [4] (HPTS quenching, 0 μM sugar) is on record as “about 20%”. As for `OC[C@H]1O[C@H](O[C@]2(CCl)O[C@H](CCl)[C@@H](O)[C@@H]2O)[C@H](O)[C@@H](O)[C@H]1Cl` [sucralose], in data set [1], the “interference with the viologen based method” value is “Neither sucrose nor sucralose interfere”. As to `O=C(CO)[C@@H](O[C@H]1O[C@H](CO)[C@@H](O)[C@H](O)[C@H]1O)[C@H](O)[C@H](O)CO` [turanose], in data set [1] (setting [5]), the “fluorescence as percent of fructose” value is on record as around 30% and the “fluorescence as percent of the lactulose fluorescence” value is given as around 20%.
